A short description of data set [1]: Molar enthalpy of transition or fusion. The note with it: DSC.
The conditions of data set [2]: for Normal melting temperature: Crystal.

From the NIST ThermoML archive (doi:10.1016/j.jct.2012.06.003) come the findings set out here.

± gives the expanded uncertainty stated by the source.

With `CCCCCC[n+]1cccc(C)c1.O=S(=O)([O-])C(F)(F)F` [1-hexyl-3-methylpyridinium trifluoromethanesulfonate], the “Molar enthalpy of transition or fusion” value was found to be 0.467 ± 0.0526 kcal/mol in data set [1] (Crystal 2) and 10 ± 0.217 kcal/mol in data set [1] (Crystal). Also, in data set [2] (Crystal 2, DTA), the Triple point temperature is on record as 310.3 ± 0.4 K. Besides, the Normal melting temperature in data set [2] (DTA) was 64.61 ± 0.39 °C; in data set [2] (Visual method), 63 ± 0.1 °C.
